Read-outs that look alike come from different tables or passages of the source.
Cc1cccc([C@H](C)c2cnc[nH]2)c1C [dexmedetomidine]
EEG spectral dynamics / sleep state induced (high-dose: about 0.9 to about 1.1 mcg/kg loading, about 0.80 to about 0.9 mcg/kg/hr maintenance, FIGS. 4A-4B): only slow-waves being induced
EEG spectral dynamics / sleep state induced (low-dose: about 0.9 to about 1.1 mcg/kg loading, about 0.60 to about 0.7 mcg/kg/hr maintenance, FIGS. 3A-3B): spindles and slow-waves that can closely resemble stage N2 NREM sleep

From patent US20170274174A1, “SYSTEM AND METHOD FOR ADMINISTERING, MONITORING AND CONTROLLING BIOMIMETIC SLEEP” (THE GENERAL HOSPITAL CORPORATION, priority 2014, published 2017)
